Test results: patent publication US20220235011A1, “PHTHALAZINONE COMPOUNDS AND USE THEREOF” (ST PHARM CO., LTD., priority 2019, published 2022)

Target: T1, Sirt6 (Homo sapiens, UniProt Q8N6T7)
T1 construct: purchased CycLex CY-1156V2
Test: Measurement of Sirt6 Activity (CycLex Sirt6 Deacetylase Fluorometric Assay Kit)
Format: biochemical
Conditions: compound at 10 μM; fluorescence relative to the group without compound treatment (positive control group)
Description: LC-MS (ESI, m/z)=430.1 (M+H^+) Experimental Example 1: Measurement of Sirt6 Activity Compounds having Sirt6 activity were selected using a CycLex Sirt6 Deacetylase Fluorometric Assay Kit (cat. CY-1156V2) manufactured by CycLex.
When a fluorescent-attached acetylated lysine substrate is treated with Sirt6 enzyme, Sirt6 deacetylates the acetylated lysine of the substrate and lysylendopeptidase cleaves the C-terminal peptide bond connected to the lysine, by which fluorescence is emitted. The activity of a compound is calculated by observing the intensity of fluorescence when the compound is treated along with Sirt6 enzyme. When treating the compound, the compound aids in the activity of Sirt6 enzyme, so as to result in stronger fluorescence. Therefore, by calculating the ratio of the stronger fluorescence relative to the fluorescence emitted from the group without compound treatment (i.e., positive control group), relative activity can be calculated.
Activity evaluation was performed according to the following procedure.
The compound whose activity is to be evaluated was prepared by diluting in phosphate-buffered saline (PBS) to 10 times of the desired concentration (e.g., when measuring Sirt6 assay activity at 10 μM, the compound is prepared at a concentration of 100 μM in PBS). 1 μL of a 1 Ox Sirt6 assay buffer, 0.8 μL of 50× fluoro-substrate peptide, 1 μL of nicotinamide adenine dinucleotide (NAD), 1 μL of a developer and 4.2 μL of H2O were mixed to prepare mixtures equal to the number of samples, and 8 μL was dispensed into each Black 384 well. An additional 1 μL of PBS was added to each of a “no enzyme group” and a positive control group, and 1 μL of the compound diluted in PBS was added to an activity evaluation group. Recombinant Sirt6 was 1:8 diluted in a 1×Sirt6 assay buffer, and 1 μL thereof was added to each of the positive control group and the activity evaluation group. 1 μL of the 1×Sirt6 assay buffer was added to the “no enzyme group.” After reacting at room temperature for one hour, results were measured with a fluorescence spectrometer (excitation: 490±10 nm, emission: 530±10 nm) to confirm the presence or absence of Sirt6 activity and measure the intensity of the activity.

T1 sequence (Q8N6T7 whole entry): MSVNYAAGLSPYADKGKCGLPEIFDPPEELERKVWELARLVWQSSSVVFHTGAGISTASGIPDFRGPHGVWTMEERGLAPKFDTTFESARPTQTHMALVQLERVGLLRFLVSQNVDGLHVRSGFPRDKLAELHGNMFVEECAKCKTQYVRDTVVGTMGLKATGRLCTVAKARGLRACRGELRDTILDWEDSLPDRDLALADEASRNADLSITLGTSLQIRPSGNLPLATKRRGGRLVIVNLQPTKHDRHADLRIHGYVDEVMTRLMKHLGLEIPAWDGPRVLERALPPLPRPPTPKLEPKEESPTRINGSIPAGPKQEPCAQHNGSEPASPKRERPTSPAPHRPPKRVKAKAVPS

Sirt6 Activity (% activity, 10 μM) | Structure (SMILES)
231 % activity | C/[N+]([O-])=C/c1cccc(-c2nn(-c3ccc(F)cc3)c(=O)c3ccccc23)c1 [Example 15, (Z)-1-(3-(3-(4-Fluorophenyl)-4-oxo-3,4-dihydrophthalazin-1-yl)phenyl)-N-methylmethanimine Oxide]
170 % activity | CCS(=O)(=O)Nc1cccc(-c2nn(-c3ccccc3)c(=O)c3ccccc23)c1 [Example 1, N-(3-(4-Oxo-3-phenyl-3,4-dihydrophthalazin-1-yl)phenyl)ethanesulfonamide]
238.3 % activity | Cl.NC1CCCCN(c2nn(C3CCCCC3)c(=O)c3ccccc23)C1 (stereo not drawn) [Example 143, 4-(3-Aminoazepan-1-yl)-2-cyclohexyl phthalazin-1(2H)-one-hydrochloride]
122 % activity | CN(c1cccc(-c2nn(-c3ccc(F)cc3)c(=O)c3ccccc23)c1)S(=O)(=O)C(F)(F)F [Example 78, 1,1,1-Trifluoro-N-(3-(3-(4-fluorophenyl)-4-oxo-3,4-dihydrophthalazin-1-yl)phenyl)-N-methylmethane Sulfonamide]
182.70 % activity | CC(C)(C(=O)O)c1cccc(-c2nn(-c3ccc(C4CC4)cc3)c(=O)c3ccccc23)c1 [Example 206, 2-(3-(3-(4-Cyclopropylphenyl)-4-oxo-3,4-dihydrophthalazin-1-yl)phenyl)-2-methylpropanoic Acid]
358.40 % activity | CC(C)(C(N)=O)c1cccc(-c2nn(-c3ccc(F)cc3F)c(=O)c3ccccc23)c1 [Example 188, 2-(3-(3-(2,4-Difluorophenyl)-4-oxo-3,4-dihydrophthalazin-1-yl)phenyl)-2-methylpropanamide]
204.58 % activity | CC(C)(C(=O)O)c1cccc(-c2nn(-c3ccc(Cl)cc3F)c(=O)c3ccccc23)c1 [Example 201, 2-(3-(3-(4-Chloro-2-fluorophenyl)-4-oxo-3,4-dihydrophthalazin-1-yl)phenyl)-2-methylpropanoic Acid]
162.3 % activity | NS(=O)(=O)c1cccc(-c2nn(C3CCCCC3)c(=O)c3ccccc23)c1 [Example 142, 3-(3-Cyclohexyl-4-oxo-3,4-dihydrophthalazin-1-yl)benzenesulfonamide]
339 % activity | CS(=O)(=O)c1cccc(-c2nn(-c3ccc(F)cc3F)c(=O)c3ccccc23)c1 [Example 89, 2-(2,4-Difluorophenyl)-4-(3-(methylsulfonyl)phenyl)phthalazin-1 (2H)-one]
134.41 % activity | CCS(=O)(=O)Nc1cccc(-c2nn(C3CCC(F)(F)CC3)c(=O)c3ccccc23)c1 [Example 140, N-(3-(3-(4,4-Difluorocyclohexyl)-4-oxo-3,4-dihydrophthalazin-1-yl)phenyl)ethanesulfonamide]
166 % activity | CC(C)S(=O)(=O)Nc1cccc(-c2nn(-c3ccc(F)cc3)c(=O)c3ccccc23)c1 [Example 67, N-(3-(3-(4-Fluorophenyl)-4-oxo-3,4-dihydrophthalazin-1-yl)phenyl)propan-2-sulfonamide]
164.1 % activity | CCS(=O)(=O)NC1CCCCN(c2nn(C3CCCCC3)c(=O)c3ccccc23)C1 (stereo not drawn) [Example 144, N-(1-(3-Cyclohexyl-4-oxo-3,4-dihydrophthalazin-1-yl)azepan-3-yl)ethanesulfonamide]
183 % activity | CC(C)/[N+]([O-])=C/c1cccc(-c2nn(-c3ccc(F)c(Cl)c3)c(=O)c3ccccc23)c1 [Example 33, (Z)-1-(3-(3-(3-Chloro-4-fluorophenyl)-4-oxo-3,4-dihydrophthalazin-1-yl)phenyl)-N-isopropyl-methanimine Oxide]
171 % activity | CC(C)/[N+]([O-])=C/c1cccc(-c2nn(-c3cc(F)cc(F)c3)c(=O)c3ccccc23)c1 [Example 31, (Z)-1-(3-(3-(3,5-Difluorophenyl)-4-oxo-3,4-dihydrophthalazin-1-yl)phenyl)-N-isopropyl Methanimine Oxide]
239.2 % activity | CC(C)(C(=O)O)c1cccc(-c2nn(-c3ccc(F)cc3F)c(=O)c3ccccc23)c1 [Example 166, 2-(3-(3-(2,4-Difluorophenyl)-4-oxo-3,4-dihydrophthalazin-1-yl)phenyl)-2-methylpropanoic Acid]
151 % activity | C/[N+]([O-])=C/c1ccc(F)c(-c2nn(-c3ccc(F)cc3)c(=O)c3ccccc23)c1 [Example 55, (Z)-1-(4-Fluoro-3-(3-(4-fluorophenyl)-4-oxo-3,4-dihydrophthalazin-1-yl)phenyl)-N-methylmethanimine Oxide]
177 % activity | CNS(=O)(=O)c1cccc(-c2nn(-c3ccc(F)cc3F)c(=O)c3cc(F)ccc23)c1 [Example 122, 3-(3-(2,4-Difluorophenyl)-6-fluoro-4-oxo-3,4-dihydrophthalazin-1-yl)-N-methylbenzenesulfonamide]
264 % activity | CCS(=O)(=O)c1cccc(-c2nn(-c3ccccc3F)c(=O)c3ccccc23)c1 [Example 98, 4-(3-(Ethylsulfonyl)phenyl)-2-(2-fluorophenyl)phthalazin-1(2H)-one]
206.10 % activity | O=C1CCCCN(c2nn(-c3ccc(F)cc3F)c(=O)c3ccccc23)C1 [Example 193, 2-(2,4-Difluorophenyl)-4-(3-oxoazepan-1-yl)phthalazin-1 (2H)-one]
101.27 % activity | CCS(=O)(=O)Nc1cccc(-c2nn(C3COC3)c(=O)c3ccccc23)c1 [Example 136, N-(3-(3-(Oxetan-3-yl)-4-oxo-3,4-dihydrophthalazin-1-yl)phenyl)ethanesulfonamide]
241.6 % activity | CC(C)(C(=O)N1CCCC1)c1cccc(-c2nn(-c3ccc(F)cc3F)c(=O)c3ccccc23)c1 [Example 177, 2-(2,4-Difluorophenyl)-4-(3-(2-methyl-1-oxo-1-(pyrrolidin-1-yl)propan-2-yl)phenyl)phthalazin-1(2H)-one]
103 % activity | COC(=O)c1cccc(-c2nn(-c3ccc(F)cc3)c(=O)c3ccccc23)c1 [Example 66, Methyl 3-(3-(4-fluorophenyl)-4-oxo-3,4-dihydrophthalazin-1-yl)benzoate]
209 % activity | CCNS(=O)(=O)c1cccc(-c2nn(-c3c(F)cccc3F)c(=O)c3ccccc23)c1 [Example 108, 3-(3-(2,6-Difluorophenyl)-4-oxo-3,4-dihydrophthalazin-1-yl)-N-ethylbenzenesulfonamide]
226 % activity | O=c1c2ccccc2c(-c2ccc[n+]([O-])c2)nn1-c1ccc(F)cc1 [Example 114, 3-(3-(4-Fluorophenyl)-4-oxo-3,4-dihydrophthalazin-1-yl)pyridine 1-oxide]
309.90 % activity | O=C(O)C1(c2cccc(-c3nn(-c4ccc(F)cc4F)c(=O)c4ccccc34)c2)CCC1 [Example 207, 1-(3-(3-(2,4-Difluorophenyl)-4-oxo-3,4-dihydrophthalazin-1-yl)phenyl)cyclobutane-1-carboxylic Acid]
139 % activity | CN(C)S(=O)(=O)N(C)c1cccc(-c2nn(-c3ccc(F)cc3)c(=O)c3ccccc23)c1 [Example 75, N-(3-(3-(4-Fluorophenyl)-4-oxo-3,4-dihydrophthalazin-1-yl)phenyl)-N-methyl-dimethyl Sulfamoylamide]
226 % activity | CCNS(=O)(=O)c1cccc(-c2nn(-c3ccc(F)cc3)c(=O)c3ccccc23)c1 [Example 87, N-Ethyl-3-(3-(4-fluorophenyl)-4-oxo-3,4-dihydrophthalazin-1-yl)benzenesulfonamide]

Structure (SMILES) | Sirt6 Activity (% activity, 10 μM)
CC(C)(C(=O)NCCO)c1cccc(-c2nn(-c3ccc(F)cc3F)c(=O)c3ccccc23)c1 [Example 186, 2-(3-(3-(2,4-Difluorophenyl)-4-oxo-3,4-dihydrophthalazin-1-yl)phenyl)-N-(2-hydroxyethyl)-2-methyl Propanamide] | 305.80 % activity

Same assay, conditions: compound at 10 μM; fluorescence relative to the group without compound treatment (positive control group); 10 µM

Sirt6 Activity (% activity, 10 μM) | Structure (SMILES)
102.60 % activity | O=C(O)C1(C2CCCN(c3nn(-c4ccc(F)cc4F)c(=O)c4ccccc34)C2)CC1 (stereo not drawn) [Example 213-2, 1-(1-(3-(2,4-Difluorophenyl)-4-oxo-3,4-dihydrophthalazin-1-yl)piperidin-3-yl)cyclopropan-1-carboxylic Acid]
105.70 % activity | CC(C)(C(=O)O)C1CCCN(c2nn(-c3ccc(F)cc3F)c(=O)c3ccccc23)C1 (stereo not drawn) [Example 205, 2-(1-(3-(2,4-Difluorophenyl)-4-oxo-3,4-dihydrophthalazin-1-yl)piperidin-3-yl)-2-methylpropanoic Acid]
